pEC50: −log10 of the molar value.
Key:
human FPR2 = target: T1, human FPR2 (Homo sapiens, UniProt P25090); experiment: FPR2 cyclic adenosine monophosphate (cAMP) assay; assay type: cell-based; settings: CHO cells overexpressing human FPR2; forskolin 5 μM; inhibition of cAMP production; HTRF; read-out: hFPR2 cAMP2 EC50
T1 sequence (P25090 1-351): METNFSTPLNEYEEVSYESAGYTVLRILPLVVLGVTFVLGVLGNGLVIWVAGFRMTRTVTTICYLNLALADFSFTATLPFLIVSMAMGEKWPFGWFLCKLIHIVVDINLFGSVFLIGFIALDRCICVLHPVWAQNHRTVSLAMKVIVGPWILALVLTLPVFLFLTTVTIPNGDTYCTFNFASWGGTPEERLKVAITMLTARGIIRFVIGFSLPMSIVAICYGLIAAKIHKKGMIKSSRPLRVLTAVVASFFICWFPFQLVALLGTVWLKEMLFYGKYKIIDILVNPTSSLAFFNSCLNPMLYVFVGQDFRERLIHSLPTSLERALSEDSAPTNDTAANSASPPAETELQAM
Summary of the method: (§1)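 CHO cells overexpressing human FPR1 (4,000/well) or FPR2 (2,000/well) were incubated 30 min at room temperature with compound (0.020 nM to 100 μM, 1% DMSO), IBMX 200 μM, and forskolin at 10 μM (FPR1) or 5 μM (FPR2), all final. HTRF cAMP read-out; inhibition fitted by 4-parameter logistic equation.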

human FPR1 = target: T2, human FPR1 (Homo sapiens, UniProt P21462); experiment: FPR1 cyclic adenosine monophosphate (cAMP) assay; assay type: cell-based; settings: CHO cells overexpressing human FPR1; forskolin 10 μM; inhibition of cAMP production; HTRF; read-out: hFPR1 cAMP2 EC50
T2 sequence (P21462 1-350): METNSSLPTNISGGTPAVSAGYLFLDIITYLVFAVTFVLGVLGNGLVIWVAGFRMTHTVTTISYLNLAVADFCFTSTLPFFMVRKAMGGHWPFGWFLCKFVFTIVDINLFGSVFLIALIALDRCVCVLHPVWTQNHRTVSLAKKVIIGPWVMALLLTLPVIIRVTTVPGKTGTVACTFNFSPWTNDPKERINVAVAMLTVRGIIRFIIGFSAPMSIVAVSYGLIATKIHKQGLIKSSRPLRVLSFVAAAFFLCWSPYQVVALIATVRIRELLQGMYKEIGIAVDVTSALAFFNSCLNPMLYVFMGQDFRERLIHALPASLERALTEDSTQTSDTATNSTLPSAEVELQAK
Summary of the method: as §1

| SMILES | pEC50 (human FPR2) | pEC50 (human FPR1) |
| --- | --- | --- |
| COc1cc(F)c(-c2c(NC(=O)c3ccc(OC(F)F)cc3)c(=O)n(-c3cccc(N4CCOCC4)n3)n2C)c(F)c1 [Example 79, N-[5-(2,6-difluoro-4-methoxyphenyl)-1-methyl-2-[6-(morpholin-4-yl)pyridin-2-yl]-3-oxo-2,3-dihydro-1H-pyrazol-4-yl]-4-(difluoromethoxy)benzamide] | 8.00 | < 5.00 |
| COc1cc(F)c(-c2c(NC(=O)c3ccc(OC(F)F)cc3)c(=O)n(-c3cccc(N4CCCCC4)n3)n2C)c(F)c1 [Example 80, N-[5-(2,6-difluoro-4-methoxyphenyl)-1-methyl-3-oxo-2-[6-(piperidin-1-yl)pyridin-2-yl]-2,3-dihydro-1H-pyrazol-4-yl]-4-(difluoromethoxy)benzamide] | 8.70 | 5.89 |
| COc1cc(F)c(-c2c(NC(=O)c3ccc(OC(F)F)cc3)c(=O)n(-c3cccc(CO)n3)n2C)c(F)c1 [Example 81, N-[5-(2,6-difluoro-4-methoxyphenyl)-2-[6-(hydroxymethyl)pyridin-2-yl]-1-methyl-3-oxo-2,3-dihydro-1H-pyrazol-4-yl]-4-(difluoromethoxy)benzamide] | 7.77 | < 5.00 |
| COc1cc(F)c(-c2c(NC(=O)c3ccc(OC(F)F)cc3)c(=O)n(-c3cccc(N(C)C)n3)n2C)c(F)c1 [Example 82, N-[5-(2,6-difluoro-4-methoxyphenyl)-2-[6-(dimethylamino)pyridin-2-yl]-1-methy-3-oxo-2,3-dihydro-1H-pyrazol-4-yl]-4-(difluoromethoxy)benzamide] | 8.70 | 6.28 |
| COc1cc(F)c(-c2c(NC(=O)c3ccc(OC(F)F)cc3)c(=O)n(-c3cccc(N4CCN(C)CC4)n3)n2C)c(F)c1 [Example 83, N-[5-(2,6-difluoro-4-methoxyphenyl)-1-methyl-2-[6-(4-methylpiperazin-1-yl)pyridin-2-yl]-3-oxo-2,3-dihydro-1H-pyrazol-4-yl]-4-(difluoromethoxy)benzamide] | 8.70 | < 5.00 |
| COc1cc(F)c(-c2c(NC(=O)c3ccc(OC(F)F)cc3)c(=O)n(-c3cccc(NC(=O)C(C)(C)C)n3)n2C)c(F)c1 [Example 84, N-[5-(2,6-difluoro-4-methoxyphenyl)-2-[6-(2,2-dimethylpropanamido)pyridin-2-yl]-1-methyl-3-oxo-2,3-dihydro-1H-pyrazol-4-yl]-4-(difluoromethoxy)benzamide] | 8.30 | 7.09 |
| COc1cc(F)c(-c2c(NC(=O)c3ccc(OC(F)F)cc3)c(=O)n(-c3cccc(C(C)(C)O)n3)n2C)c(F)c1 [Example 85] | 8.30 | 6.12 |
| COc1cc(F)c(-c2c(NC(=O)c3ccc(OC(F)F)cc3)c(=O)n(-c3cccc(C(C)O)n3)n2C)c(F)c1 (stereo not drawn) [Example 86, N-[5-(2,6-difluoro-4-methoxyphenyl)-2-[6-(1-hydroxyethyl)pyridin-2-yl]-1-methyl-3-oxo-2,3-dihydro-1H-pyrazol-4-yl]-4-(difluoromethoxy)benzamide] | 8.00 | 5.85 |
| COc1cc(F)c(-c2c(NC(=O)c3ccc(OC(F)F)cc3)c(=O)n(-c3cccc(C4(O)CCC4)n3)n2C)c(F)c1 [Example 87, N-(5-(2,6-difluoro-4-methoxyphenyl)-2-(6-(1-hydroxycyclobutyl)pyridin-2-yl)-1-methyl-3-oxo-2,3-dihydro-1H-pyrazol-4-yl)-4-(difluoromethoxy)benzamide] | 8.40 | 6.11 |
| COc1cc(C2CC2)nc(-n2c(=O)c(NC(=O)c3ccc(OC(F)F)cc3)c(-c3c(F)cc(OC)cc3F)n2C)c1 [Example 88, N-(2-(6-cyclopropyl-4-methoxypyridin-2-yl)-5-(2,6-difluoro-4-methoxyphenyl)-1-methyl-3-oxo-2,3-dihydro-1H-pyrazol-4-yl)-4-(difluoromethoxy)benzamide] | 8.70 | 5.20 |
| COc1cc(-n2c(=O)c(NC(=O)c3ccc(OC(F)F)cc3)c(-c3c(F)cc(OC)cc3F)n2C)nc(C(C)(C)O)c1 [Example 89, N-[5-(2,6-difluoro-4-methoxyphenyl)-2-[6-(2-hydroxypropan-2-yl)-4-methoxypyridin-2-yl]-1-methyl-3-oxo-2,3-dihydro-1H-pyrazol-4-yl]-4-(difluoromethoxy)benzamide] | 8.52 | 6.05 |
| COc1cc(N2C[C@@H](C)O[C@@H](C)C2)nc(-n2c(=O)c(NC(=O)c3ccc(OC(F)F)cc3)c(-c3c(F)cc(OC)cc3F)n2C)c1 [Example 92, N-[5-(2,6-difluoro-4-methoxyphenyl)-2-{6-[(2R,6S)-2,6-dimethylmorpholin-4-yl]-4-methoxypyridin-2-yl}-1-methyl-3-oxo-2,3-dihydro-1H-pyrazol-4-yl]-4-(difluoromethoxy)benzamide] | 7.80 | 5.68 |
| COc1cc(N2C[C@@H](C)N(C)[C@@H](C)C2)nc(-n2c(=O)c(NC(=O)c3ccc(OC(F)F)cc3)c(-c3c(F)cc(OC)cc3F)n2C)c1 [Example 93, N-[5-(2,6-difluoro-4-methoxyphenyl)-2-{4-methoxy-6-[(3R,5S)-3,4,5-trimethylpiperazin-1-yl]pyridin-2-yl}-1-methyl-3-oxo-2,3-dihydro-1H-pyrazol-4-yl]-4-(difluoromethoxy)benzamide] | 8.70 | 5.74 |
| COc1cc(N2CC[C@H](O)C2)nc(-n2c(=O)c(NC(=O)c3ccc(OC(F)F)cc3)c(-c3c(F)cc(OC)cc3F)n2C)c1 [Example 97, N-[5-(2,6-difluoro-4-methoxyphenyl)-2-{6-[(3S)-3-hydroxypyrrolidin-1-yl]-4-methoxypyridin-2-yl}-1-methyl-3-oxo-2,3-dihydro-1H-pyrazol-4-yl]-4-(difluoromethoxy)benzamide] | 8.52 | 5.47 |
| COc1cc(-n2c(=O)c(NC(=O)c3ccc(OC(F)F)cc3)c(-c3c(F)cc(OC)cc3F)n2C)nc(C2(O)CCC2)c1 [Example 100, N-[5-(2,6-difluoro-4-methoxyphenyl)-2-[6-(1-hydroxycyclobutyl)-4-methoxypyridin-2-yl]-1-methyl-3-oxo-2,3-dihydro-1H-pyrazol-4-yl]-4-(difluoromethoxy)benzamide] | 8.70 | 5.80 |
| COc1cc(F)c(-c2c(NC(=O)c3ccc(OC(F)F)cc3)c(=O)n(-c3cccc(N4CC[C@H](O)C4)n3)n2C)c(F)c1 [Example 102, N-[5-(2,6-difluoro-4-methoxyphenyl)-2-{6-[(3S)-3-hydroxypyrrolidin-1-yl]pyridin-2-yl}-1-methyl-3-oxo-2,3-dihydro-1H-pyrazol-4-yl]-4-(difluoromethoxy)benzamide] | 8.70 | 6.00 |
| COc1cc(F)c(-c2c(NC(=O)c3ccc(OC(F)F)cc3)c(=O)n(-c3cccc(N4CC(F)(F)C4)n3)n2C)c(F)c1 [Example 104, N-[5-(2,6-difluoro-4-methoxyphenyl)-2-[6-(3,3-difluoroazetidin-1-yl)pyridin-2-yl]-1-methyl-3-oxo-2,3-dihydro-1H-pyrazol-4-yl]-4-(difluoromethoxy)benzamide] | 8.52 | 5.21 |
| COc1cc(F)c(-c2c(NC(=O)c3ccc(OC(F)F)cc3)c(=O)n(-c3cc(C)cc(C)c3)n2C)c(F)c1 [Example 109, N-[5-(2,6-difluoro-4-methoxyphenyl)-2-(3,5-dimethylphenyl)-1-methyl-3-oxo-2,3-dihydro-1H-pyrazol-4-yl]-4-(difluoromethoxy)benzamide] | 7.96 | 5.09 |
| COc1cc(F)c(-c2c(NC(=O)c3ccc(OC(F)F)cc3)c(=O)n(-c3cccc(C#N)c3)n2C)c(F)c1 [Example 110, N-[2-(3-cyanophenyl)-5-(2,6-difluoro-4-methoxyphenyl)-1-methyl-3-oxo-2,3-dihydro-1H-pyrazol-4-yl]-4-(difluoromethoxy)benzamide] | 8.05 | 7.43 |
| COc1cc(F)c(-c2c(NC(=O)c3ccc(OC(F)F)cc3)c(=O)n(-c3cccc(C4CC4)c3)n2C)c(F)c1 [Example 111, N-[2-(3-cyclopropylphenyl)-5-(2,6-difluoro-4-methoxyphenyl)-1-methyl-3-oxo-2,3-dihydro-1H-pyrazol-4-yl]-4-(difluoromethoxy)benzamide] | 8.40 | 8.70 |
| COc1cccc(-n2c(=O)c(NC(=O)c3ccc(OC(F)F)cc3)c(-c3c(F)cc(OC)cc3F)n2C)c1 [Example 112, N-[5-(2,6-difluoro-4-methoxyphenyl)-2-(3-methoxyphenyl)-1-methyl-3-oxo-2,3-dihydro-1H-pyrazol-4-yl]-4-(difluoromethoxy)benzamide] | 8.30 | 8.52 |
